Drawing on patent US7495104B2, “Quinoline or quinazoline derivatives inhibiting auto-phosphorylation of fibroblast growth factor receptors” (Kirin Beer Kabushiki Kaisha, priority 2001, dated 2009), this text covers IC50 for 32 molecules.

Where a name gives a salt, the structure may show the parent alone. A value given as a limit tells only on which side of the number the result lay.

Chain of Bek (P21802 431-767 limits assumed): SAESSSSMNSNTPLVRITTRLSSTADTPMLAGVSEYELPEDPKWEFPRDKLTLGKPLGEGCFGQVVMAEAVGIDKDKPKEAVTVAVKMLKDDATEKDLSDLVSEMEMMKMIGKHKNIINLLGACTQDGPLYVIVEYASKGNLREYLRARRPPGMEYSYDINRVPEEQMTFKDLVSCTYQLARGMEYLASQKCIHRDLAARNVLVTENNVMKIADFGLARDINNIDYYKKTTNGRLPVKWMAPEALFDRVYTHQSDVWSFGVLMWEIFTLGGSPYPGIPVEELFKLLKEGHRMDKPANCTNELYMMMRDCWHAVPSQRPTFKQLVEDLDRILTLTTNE

This test has as its target Bek (Homo sapiens, UniProt P21802). The test can be described thus: Inhibitory activity against Bek-autophosphorylation using ELISA method in OCUM-2MD3 cells. The format is cell-based. As to conditions: 1 hr with compound, read-out: IC50 (concentration necessary for inhibiting 50% of Bek-phosphorylation). A digest of the protocol:
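Sandwich ELISA (anti-phosphotyrosine capture, anti-Bek detection, peroxidase, 450 nm) measured Bek autophosphorylation in OCUM-2MD3 lysates after 1 hr compound treatment at 37° C in 0.1% serum medium. IC50 derived by scaling between no-drug (100%) and excess positive control at 1000 nM (0%).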
(In general: In an ELISA, binding on a coated surface is turned into a signal by an enzyme label.)
With `COc1ccc(Nc2ccc(Oc3ccnc4cc(OC)c(OC)cc34)cc2)cc1OC` [Compound 43, (3,4-Dimethoxyphenyl)-[4-(6,7-dimethoxyquinolin-4-yloxy)-phenyl]amine], the IC50 was determined as 3340 nM. In the case of `COc1cc2c(Oc3ccc(NC(=O)NCCC(C)(C)C)c(F)c3)ccnc2cc1OCCCN1CCC(CCO)CC1` [Compound 304, 1-(3,3-Dimethyl-butyl)-3-[2-fluoro-4-(7-{3-[4-(2-hydroxy-ethyl)-piperidin-1-yl]-propoxy}-6-methoxy-quinolin-4-yloxy)-phenyl]-urea] it was 31.2 nM; in that of `COc1cc2c(Oc3ccc(Nc4ccc(C(C)(C)C)cc4)cc3)ccnc2cc1OC[C@H](O)CN1CCOCC1` [Compound 70, (R)-1-{4-[4-(4-Tert-butylphenylamino)phenoxy]-6-methoxyquinolin-7-yloxy}-3-morpholin-4-ylpropan-2-ol], 68.5 nM; in that of `COc1cc2nccc(Oc3ccc(NC(=O)NC4CC(C)CC(C)(C)C4)cc3)c2cc1OC` (centres unmarked) [Compound 105, 1-[4-(6,7-Dimethoxy-quinolin-4-yloxy)-phenyl]-3-(3,3,5-trimethyl-cyclohexyl)-urea], 30.6 nM. In the case of `COc1cc2c(Oc3ccc(Nc4ccc(C(C)C)cc4)cc3)ccnc2cc1OCC(=O)N1CCOCC1` [Compound 229, 2-{4-[4-(4-Isopropyl-phenylamino)-phenoxy]-6-methoxy-quinolin-7-yloxy}-1-morpholin-4-yl-ethanone] it was 156 nM; in that of `COc1cc2c(Oc3ccc(Nc4ccc(C(C)(C)C)cc4)cc3)ccnc2cc1OCCCN1CCN(C)CC1` [Compound 35, (4-Tert-butylphenyl)-(4-{6-methoxy-7-[3-(4-methylpiperazin-1-yl)propoxy]quinolin-4-yloxy}phenyl)amine], 220 nM. In the case of `COc1cc2c(Oc3ccc(NC(=O)NCCC(C)(C)C)c(Cl)c3)ccnc2cc1OCCCN1CCC(CCO)CC1` [Compound 267, 1-[2-Chloro-4-(7-{3-[4-(2-hydroxy-ethyl)-piperidin-1-yl]-propoxy}-6-methoxy-quinolin-4-yloxy)-phenyl]-3-(3,3-dimethyl-butyl)-urea] it was 26.7 nM. As for `CCCCc1ccc(Nc2ccc(Oc3ccnc4cc(OC)c(OC)cc34)cc2)cc1` [Compound 8, (4-Butylphenyl)-[4-(6,7-dimethoxyquinolin-4-yloxy)phenyl]amine], the IC50 is 1500 nM. In the case of `COc1cc2nccc(Oc3ccc(NC(=O)NCCC(C)(C)C)c(C(F)(F)F)c3)c2cc1OC` [Compound 150, 1-[4-(6,7-Dimethoxy-quinolin-4-yloxy)-2-trifluoromethyl-phenyl]-3-(3,3-dimethyl-butyl)-urea] it was 63.8 nM; in that of `COc1cc2nccc(Oc3ccc(NC(=O)NC4CCCC(C)(C)C4)c(Cl)c3)c2cc1OC` (centres unmarked) [Compound 110, 1-[2-Chloro-4-(6,7-dimethoxy-quinolin-4-yloxy)-phenyl]-3-(3,3-dimethyl-cyclohexyl)-urea], below 10 nM; in that of `COc1cc2c(Oc3ccc(NC(=O)NCCC(C)(C)C)cc3)ccnc2cc1OCCCBr` [Compound 147, 1-{4-[7-(3-Bromo-propoxy)-6-methoxy-quinolin-4-yloxy]-phenyl}-3-(3,3-dimethyl-butyl)-urea], 654 nM. In the case of `COc1cc2c(Oc3ccc(Nc4ccc(C(C)(C)C)cc4)cc3)ccnc2cc1OCCN1CCOCC1` [Compound 37, (4-Tert-butylphenyl)-{4-[6-methoxy-7-(2-morpholin-4-ylethoxy)quinolin-4-yloxy]phenyl}amine] it was 345 nM.

As to `COc1cc2nccc(Oc3ccc(Nc4nn(-c5ccccc5)c(=O)o4)cc3)c2cc1OC` [Compound 76, 5-[4-(6,7-Dimethoxyquinolin-4-yloxy)phenylamino]-3-phenyl-3H-[1,3,4]oxazol-2-one], the IC50 was 7560 nM. In the case of `COc1cc2nccc(Oc3ccc(NC(=O)NC4CC(C)CC(C)(C)C4)c(F)c3)c2cc1OC` (centres unmarked) [Compound 106, 1-[4-(6,7-Dimethoxy-quinolin-4-yloxy)-2-fluoro-phenyl]-3-(3,3,5-trimethyl-cyclohexyl)-urea] it was 19.7 nM; in that of `COCC1CCN(CCOc2cc3nccc(Oc4ccc(Nc5ccc(C(C)(C)C)cc5)cc4)c3cc2OC)CC1` [Compound 281, (4-Tert-butyl-phenyl)-(4-{6-methoxy-7-[2-(4-methoxymethyl-piperidin-1-yl)-ethoxy]-quinolin-4-yloxy}-phenyl)-amine], 244 nM; in that of `COc1cc2c(Oc3ccc(NC(=O)NCCC(C)(C)C)cc3Cl)ccnc2cc1OCCN1CCC(CCO)CC1` [Compound 315, 1-[3-Chloro-4-(7-{2-[4-(2-hydroxy-ethyl)-piperidin-1-yl]-ethoxy}-6-methoxy-quinolin-4-yloxy)-phenyl]-3-(3,3-dimethyl-butyl)-urea], 133 nM. In the case of `COc1cc2c(Oc3ccc(Nc4ccc(C(C)(C)C)cc4)c(F)c3)ccnc2cc1OCCN1CCOCC1` [Compound 79, (4-Tert-butylphenyl)-{2-fluoro-4-[6-methoxy-7-(2-morpholin-4-ylethoxy)quinolin-4-yloxy]phenyl}amine], the IC50 was found to be 159 nM. For the molecule `COc1cc2c(Oc3ccc(Nc4ccc(C(C)(C)C)cc4)cc3)ccnc2cc1OCCNC(C)CO` (centres unmarked) [Compound 353, 2-(2-{4-[4-(4-Tert-butyl-phenylamino)-phenoxy]-6-methoxy-quinolin-7-yloxy}-ethylamino)-propan-1-ol], the IC50 is 374 nM. In the case of `COc1cc2c(Oc3ccc(NC(=O)NC4CCCC(C)(C)C4)c(F)c3)ccnc2cc1OCCN1CC(C)OC(C)C1` (centres unmarked) [Compound 134, 1-(3,3-Dimethyl-cyclohexyl)-3-(4-{7-[2-(2,6-dimethyl-morpholin-4-yl)-ethoxy]-6-methoxy-quinolin-4-yloxy}-2-fluoro-phenyl)-urea] it was 11.8 nM; in that of `CCN(CCO)CCOc1cc2nccc(Oc3ccc(NC(=O)NCCC(C)(C)C)c(Cl)c3)c2cc1OC` [Compound 342, 1-[2-Chloro-4-(7-{2-[ethyl-(2-hydroxy-ethyl)-amino]-ethoxy}-6-methoxy-quinolin-4-yloxy)-phenyl]-3-(3,3-dimethyl-butyl)-urea], 11.6 nM; in that of `COc1cc2c(Oc3ccc(NC(=O)NCCC(C)(C)C)c(Cl)c3)ccnc2cc1OC[C@H](O)CN1CCOCC1` [Compound 201, 1-{2-Chloro-4-[7-(2-hydroxy-3-morpholin-4-yl-propoxy)-6-methoxy-quinolin-4-yloxy]-phenyl}-3-(3,3-dimethyl-butyl)-urea], below 10 nM. In the case of `COc1cc2c(Oc3ccc(Nc4ccc(C(C)(C)C)cc4)cc3)ccnc2cc1OCC(O)CN1CCCN(C)CC1` (centres unmarked) [Compound 65, 1-{4-[4-(4-Tert-butylphenylamino)phenoxy]-6-methoxyquinolin-7-yloxy}-3-(4-methyl-[1,4]diazepin-1-yl)propan-2-ol] it was 184 nM; in that of `COc1cc2nccc(Oc3ccc(NC(=O)NCCC(C)(C)C)cc3F)c2cc1OC` [Compound 102, 1-[4-(6,7-Dimethoxy-quinolin-4-yloxy)-3-fluorophenyl]-3-(3,3-dimethyl-butyl)-urea], 27.8 nM. Regarding `COc1cc2c(Oc3ccc(Nc4ccc(C(C)(C)C)cc4)cc3)ccnc2cc1OCCCN1CC(C)CC(C)C1` (centres unmarked) [Compound 233, (4-Tert-butyl-phenyl)-(4-{7-[3-(3,5-dimethyl-piperidin-1-yl)-propoxy]-6-methoxy-quinolin-4-yloxy}-phenyl)-amine], the IC50 was 371 nM.

As for `COc1cc2c(Oc3ccc(NC(=O)NCCC(C)(C)C)c(Cl)c3)ccnc2cc1OCC(O)CN1CCCN(C)CC1` (centres unmarked) [Compound 196, 1-(2-Chloro-4-{7-[2-hydroxy-3-(4-methyl-[1,4]diazepan-1-yl)-propoxy]-6-methoxy-quinolin-4-yloxy}-phenyl)-3-(3,3-dimethyl-butyl)-urea], the IC50 worked out at 17.3 nM. In the case of `COc1cc2c(Oc3ccc(Nc4ccc(C(C)(C)C)cc4)cc3)ccnc2cc1OCCCN(CCO)CCO` [Compound 51, 2-[(3-{4-[4-(4-Tert-butylphenylamino)phenoxy]-6-methoxy-quinolin-7-yloxy}propyl)-(2-hydroxyethyl)amino]ethanol], the IC50 worked out at 30.6 nM.

For `COc1cc2c(Oc3ccc(Nc4ccc(C(C)(C)C)cc4)cc3)ccnc2cc1OCC(O)CN1CCC(N2CCCC2)CC1` (centres unmarked) [Compound 259, 1-{4-[4-(4-Tert-butyl-phenylamino)-phenoxy]-6-methoxy-quinolin-7-yloxy}-3-(4-pyrrolidin-1-yl-piperidin-1-yl)-propan-2-ol], the IC50 is 46.6 nM. As to `COc1cc2c(Oc3ccc(NC(=O)NCCC(C)(C)C)cc3)ccnc2cc1OCCCCN1CCOCC1` [Compound 158, 1-(3,3-Dimethyl-butyl)-3-{4-[6-methoxy-7-(4-morpholin-4-yl-butoxy)-quinolin-4-yloxy]-phenyl}-urea hydrochloride], the IC50 was determined as 32.1 nM. In the case of `COc1cc2c(Oc3ccc(Nc4ccc(C(C)(C)C)cc4)cc3)ccnc2cc1OCCN(C)CCO` [Compound 348, 2-[(2-{4-[4-(4-Tert-butyl-phenylamino)-phenoxy]-6-methoxy-quinolin-7-yloxy}-ethyl)-methyl-amino]-ethanol hydrochloride] it was 186 nM; in that of `COc1cc2c(Oc3ccc(Nc4ccc(C(C)(C)C)cc4)cc3)ccnc2cc1OCCCN1CCC(O)CC1` [Compound 216, 1-(3-{4-[4-(4-Tert-butyl-phenylamino)-phenoxy]-6-methoxy-quinolin-7-yloxy}-propyl)-piperidin-4-ol], 174 nM; in that of `COc1cc2c(Oc3ccc(Nc4ccc(C(C)(C)C)cc4)cc3F)ccnc2cc1OCCN1CCC(O)CC1` [Compound 284, 1-(2-{4-[4-(4-Tert-butyl-phenylamino)-2-fluoro-phenoxy]-6-methoxy-quinolin-7-yloxy}-ethyl)-piperidin-4-ol], 247 nM. Regarding `COc1cc2c(Oc3ccc(Nc4ccc(C(C)(C)C)cc4)cc3)ccnc2cc1OCCCN1CCC(N2CCCCC2)CC1` [Compound 236, {4-[7-(3-[1,4′]Bipiperidineyl-1 ′-yl-propoxy)-6-methoxy-quinolin-4-yloxy]-phenyl}-(4-tert-butyl-phenyl)-amine], the IC50 turned out to be 269 nM.
